Laboratory results reported in ChEMBL document CHEMBL2440076, “New triarylpyrazoles as broad-spectrum anticancer agents: design, synthesis, and biological evaluation” (Eur J Med Chem, 2013).

Test system: DU-145
Experiment: Growth inhibition of human DU145 cells assessed as cell growth at 5X10'-6 M after 48 hrs by sulforhodamine B assay
Format: functional
Conditions: DU-145, 48 h, read-out: Activity

`COc1cc(-c2nn(-c3cccc(NC(=O)Nc4ccc(Cl)c(Cl)c4)c3)cc2-c2ccncc2)ccc1Cl` was tested, and the growth at 5 µM was 7%.

`COc1cc(-c2nn(-c3cccc(NC(=O)Nc4cccc(C(F)(F)F)c4)c3)cc2-c2ccncc2)ccc1Cl` was tested, and the growth at 5 µM was 14%.

Work on `COc1cc(-c2nn(-c3cccc(NC(=O)c4cccc(C(F)(F)F)c4)c3)cc2-c2ccncc2)ccc1Cl` yielded a growth at 5 µM of 15%.
